Data as given in patent US11000033B2, “Ketone or oxime compound, and herbicide” (NISSAN CHEMICAL CORPORATION, priority 2014, dated 2021).

What was measured:
Assay type in all cases: in vivo
[1] = system: Echinochloa crus-galli var. crus-galli; assay: Test Example 5: herbicidal effect by foliage application, plastic box (symbol H); details: 320 g/ha, 3 weeks after application
Outline: (§1)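 After sowing into sterilized diluvial soil and growing two weeks under glass at 25° C. to 30° C., seedlings receive a uniform foliar spray of diluted emulsion. Damage is judged visually three weeks on.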

[2] = system: Apera spica-venti; assay: Test Example 4: herbicidal effect by soil treatment (symbol L); details: for L: Apera spica-venti, herbicidal effect grade: 320 g/ha
Outline: (§2)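 Seeds were sown in sterilized diluvial soil, covered with about 1.5 cm of soil, and the soil surface was sprayed with a water-diluted emulsion of the compound at a predetermined rate. Plants grew in a greenhouse at 25° C. to 30° C.; effects were scored visually 3 weeks after application.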

[3] = system: Veronica persica; assay: Test Example 4: herbicidal effect by soil treatment (symbol R); details: for R: Veronica persica, herbicidal effect grade: 320 g/ha
Outline: as §2

[4] = system: Digitaria ciliaris; assay: Test Example 5: herbicidal effect by foliage application, plastic box (symbol F); details: 320 g/ha, 3 weeks after application
Outline: as §1

[5] = system: rice; assay: Test Example 4: effect on crop by soil treatment (symbol b); details: for b: directly sowed rice plant, effect grade on crop: 320 g/ha
Outline: (§3)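 Crop seeds, among them rice, wheat, beet and rapeseed, were sown in sterilized diluvial soil and covered with about 1.5 cm of soil. Boxes were kept in a greenhouse at 25° C. to 30° C. for plant growth.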

[6] = system: Alopecurus myosuroides; assay: Test Example 4: herbicidal effect by soil treatment (symbol J); details: for J: Alopecurus myosuroides, herbicidal effect grade: 320 g/ha
Outline: as §2

[7] = system: soybean; assay: Test Example 4: effect on crop by soil treatment (symbol d); details: for d: soybean, effect grade on crop: 320 g/ha
Outline: as §3

[8] = system: Scirpus juncoides; assay: Test Example 1: herbicidal activity, application before weed generation in submerged conditions (symbol B); details: application herbicide amount 320 g/ha
Outline: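 Flooded alluvial soil (4 cm water) was mixed-sown with the three weed species, and 2.5-leaf rice seedlings were transplanted. On sowing day, a water-diluted emulsion at a predetermined rate was applied to the water surface. After 3 weeks in a 25–30 °C greenhouse, effect was scored 0–5.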

[9] = system: Setaria viridis; assay: Test Example 4: herbicidal effect by soil treatment (symbol G); details: for G: Setaria viridis, herbicidal effect grade: 320 g/ha
Outline: as §2

[10] = system: wheat; assay: Test Example 4: effect on crop by soil treatment (symbol e); details: for e: wheat, effect grade on crop: 320 g/ha
Outline: as §3

[11] = system: Abutilon theophrasti; assay: Test Example 4: herbicidal effect by soil treatment (symbol M); details: for M: Abutilon theophrasti, herbicidal effect grade: 320 g/ha
Outline: as §2

[12] = system: Monochoria vaginalis; assay: Test Example 2: herbicidal activity, application during weed generation in submerged conditions (symbol C); details: Table 23; application herbicide amount 320 g/ha; grade 0-5 by criteria of Test Example 1
Outline: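 Alluvial soil in pots was flooded to a 4 cm water depth and sown with a mix of the three weed species, then grown in a greenhouse at 25° C. to 30° C. At the one- to two-leaf stage, an emulsifiable formulation diluted in water to a set dose was applied to the water surface. Effects were scored visually 3 weeks later.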

[13] = system: Stellaria media; assay: Test Example 4: herbicidal effect by soil treatment (symbol P); details: for P: Stellaria media, herbicidal effect grade: 320 g/ha
Outline: as §2

[14] = system: Alopecurus myosuroides; assay: Test Example 5: herbicidal effect by foliage application, plastic box (symbol J); details: 320 g/ha, 3 weeks after application
Outline: as §1

[15] = system: rice plant; assay: Test Example 5: effect on crop by foliage application, plastic box (symbol b); details: 320 g/ha, 3 weeks after application
Outline: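 Seeds were sown in spots in sterilized diluvial soil held in a plastic box 21 cm × 13 cm × 7 cm deep, covered with about 1.5 cm of soil, and grown in a greenhouse at 25° C. to 30° C.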

[16] = system: Chenopodium album; assay: Test Example 5: herbicidal effect by foliage application, plastic box (symbol O); details: 320 g/ha, 3 weeks after application
Outline: as §1

[17] = system: Avena fatua; assay: Test Example 4: herbicidal effect by soil treatment (symbol I); details: for I: Avena fatua, herbicidal effect grade: 320 g/ha
Outline: as §2

[18] = application herbicide amount 320 g/ha

| Compound | H: Echinochloa crus-galli var. crus-galli, herbicidal effect (criteria 0-5) [1] | L: Apera spica-venti, herbicidal effect grade [2] | R: Veronica persica, herbicidal effect grade [3] | F: Digitaria ciliaris, herbicidal effect (criteria 0-5) [4] | b: directly sowed rice plant, effect grade on crop [5] | J: Alopecurus myosuroides, herbicidal effect grade [6] | d: soybean, effect grade on crop [7] | Herbicidal effect grade, B: Scirpus juncoides [8] | G: Setaria viridis, herbicidal effect grade [9] | e: wheat, effect grade on crop [10] | M: Abutilon theophrasti, herbicidal effect grade [11] | Herbicidal effect grade, C: Monochoria vaginalis [12] | P: Stellaria media, herbicidal effect grade [13] | J: Alopecurus myosuroides, herbicidal effect (criteria 0-5) [14] | b: directly sowed rice plant, effect on crop (criteria 0-5) [15] | O: Chenopodium album, herbicidal effect (criteria 0-5) [16] | I: Avena fatua, herbicidal effect grade [17] | other results |
| --- | --- | --- | --- | --- | --- | --- | --- | --- | --- | --- | --- | --- | --- | --- | --- | --- | --- | --- |
| CCCON=C(C)CC1CC(O)=C(c2c(C)cc(C)cc2C)C1=O (stereo not shown) [1-123] | 5 (Herbicidal ratio of 90% or more (almost completely withered)) | 5 (Herbicidal ratio of 90% or more (almost completely withered)) | 0 (Herbicidal ratio of 5% or lower (almost no effect)) | 5 (Herbicidal ratio of 90% or more (almost completely withered)) | 5 (Herbicidal ratio of 90% or more (almost completely withered)) | 5 (Herbicidal ratio of 90% or more (almost completely withered)) | 0 (Herbicidal ratio of 5% or lower (almost no effect)) | 4 (Herbicidal ratio of 70% or higher and lower than 90%) | 5 (Herbicidal ratio of 90% or more (almost completely withered)) | 0 (Herbicidal ratio of 5% or lower (almost no effect)) | 3 (Herbicidal ratio of 40% or higher and lower than 70%) | 2 (Herbicidal ratio of 20% or higher and lower than 40%) | 0 (Herbicidal ratio of 5% or lower (almost no effect)) | 5 (Herbicidal ratio of 90% or more (almost completely withered)) | 5 (Herbicidal ratio of 90% or more (almost completely withered)) | 0 (Herbicidal ratio of 5% or lower (almost no effect)) | 4 (Herbicidal ratio of 70% or higher and lower than 90%) | – |
| CON=C(C)CC1CC(OC(=O)c2nsc(Cl)c2Cl)=C(c2c(C)cc(C)cc2C)C1=O (stereo not shown) [1-099] | 5 (Herbicidal ratio of 90% or more (almost completely withered)) | 5 (Herbicidal ratio of 90% or more (almost completely withered)) | 0 (Herbicidal ratio of 5% or lower (almost no effect)) | 5 (Herbicidal ratio of 90% or more (almost completely withered)) | 5 (Herbicidal ratio of 90% or more (almost completely withered)) | 5 (Herbicidal ratio of 90% or more (almost completely withered)) | 3 (Herbicidal ratio of 40% or higher and lower than 70%) | 4 (Herbicidal ratio of 70% or higher and lower than 90%) | 5 (Herbicidal ratio of 90% or more (almost completely withered)) | 3 (Herbicidal ratio of 40% or higher and lower than 70%) | 5 (Herbicidal ratio of 90% or more (almost completely withered)) | 2 (Herbicidal ratio of 20% or higher and lower than 40%) | 0 (Herbicidal ratio of 5% or lower (almost no effect)) | 5 (Herbicidal ratio of 90% or more (almost completely withered)) | 5 (Herbicidal ratio of 90% or more (almost completely withered)) | 3 (Herbicidal ratio of 40% or higher and lower than 70%) | 2 (Herbicidal ratio of 20% or higher and lower than 40%) | – |
| CC(CC1CC(OC(=O)COc2ccccc2)=C(c2c(C)cc(-c3ccc(Cl)cc3)cc2C)C1=O)=NOCC(F)(F)F (mixture of isomers) [9-027] | – | – | – | – | – | – | – | – | – | – | – | 0 (Herbicidal ratio of 5% or lower (almost no effect)) | – | – | – | – | – | H: Echinochloa crus-galli var. crus-galli, herbicidal effect grade [1]: 5 (Herbicidal ratio of 90% or more (almost completely withered)); Herbicidal effect grade, L: Apera spica-venti [2, 18]: 5 (Herbicidal ratio of 90% or more (almost completely withered)); Herbicidal effect grade, R: Veronica persica [3, 18]: 3 (Herbicidal ratio of 40% or higher and lower than 70%); F: Digitaria ciliaris, herbicidal effect grade [4]: 5 (Herbicidal ratio of 90% or more (almost completely withered)); Effect on crop grade, b: directly sowed rice plant [5, 18]: 5 (Herbicidal ratio of 90% or more (almost completely withered)); Herbicidal effect grade, J: Alopecurus myosuroides [6, 18]: 5 (Herbicidal ratio of 90% or more (almost completely withered)); Effect on crop grade, d: soybean [7, 18]: 0 (Herbicidal ratio of 5% or lower (almost no effect)); B (Scirpus juncoides) herbicidal effect grade [8]: 2 (Herbicidal ratio of 20% or higher and lower than 40%); Herbicidal effect grade, G: Setaria viridis [9, 18]: 5 (Herbicidal ratio of 90% or more (almost completely withered)); Effect on crop grade, e: wheat [10, 18]: 2 (Herbicidal ratio of 20% or higher and lower than 40%); Herbicidal effect grade, M: Abutilon theophrasti [11, 18]: 0 (Herbicidal ratio of 5% or lower (almost no effect)); Herbicidal effect grade, P: Stellaria media [13, 18]: 3 (Herbicidal ratio of 40% or higher and lower than 70%); J: Alopecurus myosuroides, herbicidal effect grade [14]: 5 (Herbicidal ratio of 90% or more (almost completely withered)); b: directly sowed rice plant, effect on crop grade [15]: 5 (Herbicidal ratio of 90% or more (almost completely withered)); O: Chenopodium album, herbicidal effect grade [16]: 2 (Herbicidal ratio of 20% or higher and lower than 40%); Herbicidal effect grade, I: Avena fatua [17, 18]: 4 (Herbicidal ratio of 70% or higher and lower than 90%) |
| CON=C(C)CC1CC(OC(=O)C(CSC)=NOC)=C(c2c(C)cc(C)cc2C)C1=O (stereo not shown) [1-098] | 5 (Herbicidal ratio of 90% or more (almost completely withered)) | 5 (Herbicidal ratio of 90% or more (almost completely withered)) | 0 (Herbicidal ratio of 5% or lower (almost no effect)) | 5 (Herbicidal ratio of 90% or more (almost completely withered)) | 5 (Herbicidal ratio of 90% or more (almost completely withered)) | 5 (Herbicidal ratio of 90% or more (almost completely withered)) | 2 (Herbicidal ratio of 20% or higher and lower than 40%) | 5 (Herbicidal ratio of 90% or more (almost completely withered)) | 5 (Herbicidal ratio of 90% or more (almost completely withered)) | 3 (Herbicidal ratio of 40% or higher and lower than 70%) | 4 (Herbicidal ratio of 70% or higher and lower than 90%) | 3 (Herbicidal ratio of 40% or higher and lower than 70%) | 0 (Herbicidal ratio of 5% or lower (almost no effect)) | 5 (Herbicidal ratio of 90% or more (almost completely withered)) | 5 (Herbicidal ratio of 90% or more (almost completely withered)) | 0 (Herbicidal ratio of 5% or lower (almost no effect)) | 2 (Herbicidal ratio of 20% or higher and lower than 40%) | – |
| CON=C(C)CC1CC(OC(=O)N(C)C)=C(c2c(C)cc(C)cc2C)C1=O (stereo not shown) [1-108] | 5 (Herbicidal ratio of 90% or more (almost completely withered)) | 5 (Herbicidal ratio of 90% or more (almost completely withered)) | 0 (Herbicidal ratio of 5% or lower (almost no effect)) | 5 (Herbicidal ratio of 90% or more (almost completely withered)) | 5 (Herbicidal ratio of 90% or more (almost completely withered)) | 5 (Herbicidal ratio of 90% or more (almost completely withered)) | 0 (Herbicidal ratio of 5% or lower (almost no effect)) | 4 (Herbicidal ratio of 70% or higher and lower than 90%) | 5 (Herbicidal ratio of 90% or more (almost completely withered)) | 4 (Herbicidal ratio of 70% or higher and lower than 90%) | 4 (Herbicidal ratio of 70% or higher and lower than 90%) | 1 (Herbicidal ratio of 5% or higher and lower than 20%) | 0 (Herbicidal ratio of 5% or lower (almost no effect)) | 5 (Herbicidal ratio of 90% or more (almost completely withered)) | 5 (Herbicidal ratio of 90% or more (almost completely withered)) | 0 (Herbicidal ratio of 5% or lower (almost no effect)) | 3 (Herbicidal ratio of 40% or higher and lower than 70%) | – |
